Where “and” joins values, the source holds several entries; their conditions need not be identical. Equal entries are not always repeated. Inconclusive results and toxic doses are left out. The calls were made as follows: active = survival T/C of 150% or more; inactive = T/C below 125% in these data. Peptide text beside a SMILES is read from it. * marks the point of attachment. For = O=C*
Tested on: P388 leukemia ip, CD2F1 mice, survival T/C
Assay: NCI In Vivo Anticancer Drug Screen. Data for tumor model P388 Leukemia (intraperitoneal) in CD2F1 (CDF1) mice
Conditions: endpoint: median survival time, higher = longer survival
Summary of the method: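 Mice carrying the transplanted tumor received test compound or vehicle. Survival was recorded in each group, and the value is the treated-group measurement divided by that of the vehicle-treated control group.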

[1] = dose: 60.0 mg/kg/injection, schedule: Q01DX005 (ip), vehicle: saline with Tween-80
[2] = dose: 120.0 mg/kg/injection, schedule: Q01DX005 (ip), vehicle: saline with Tween-80
[3] = dose: 240.0 mg/kg/injection, schedule: Q01DX005 (ip), vehicle: saline with Tween-80
[4] = dose: 100.0 mg/kg/injection, schedule: Q01DX001 (ip), vehicle: Klucel (hydroxypropylcellulose) (HPC)
[5] = dose: 200.0 mg/kg/injection, schedule: Q01DX001 (ip), vehicle: Klucel (hydroxypropylcellulose) (HPC)
[6] = dose: 50.0 mg/kg/injection, schedule: Q01DX005 (ip), vehicle: saline with Tween-80
[7] = dose: 100.0 mg/kg/injection, schedule: Q01DX005 (ip), vehicle: saline with Tween-80
[8] = dose: 200.0 mg/kg/injection, schedule: Q01DX005 (ip), vehicle: saline with Tween-80
[9] = dose: 100.0 mg/kg/injection, schedule: Q01DX009 (ip), vehicle: saline with Tween-80
[10] = dose: 100.0 mg/kg/injection, schedule: Q04DX003 (ip), vehicle: saline with Tween-80
[11] = dose: 12.5 mg/kg/injection, schedule: Q01DX009 (ip), vehicle: saline
[12] = dose: 25.0 mg/kg/injection, schedule: Q01DX009 (ip), vehicle: saline
[13] = dose: 12.5 mg/kg/injection, schedule: Q01DX009 (ip), vehicle: other
[14] = dose: 25.0 mg/kg/injection, schedule: Q01DX009 (ip), vehicle: other
[15] = dose: 100.0 mg/kg/injection, schedule: Q01DX009 (ip), vehicle: other
[16] = dose: 200.0 mg/kg/injection, schedule: Q01DX009 (ip), vehicle: other

Measured: T/C

COc1ccc2c(c1)C(=O)C[C@@H]1[C@](C)(C#N)CCC[C@]21C
inactive: [1] 100 % of control | [2] 94 % of control | [3] 94 % of control

CC1CCC2OC23C(=O)C2OC2C(C(C)(C)O)C13C (centres undefined)
inactive: [4] 104 % of control | [5] 101 % of control | dose: 400.0 mg/kg/injection, schedule: Q01DX001 (ip), vehicle: Klucel (hydroxypropylcellulose) (HPC) 100 % of control

CSCCC(NC(=O)C(Cc1ccccc1)NC=O)C(=O)O (stereo not drawn) (For-Phe-Met-OH; configuration not given here)
inactive: [6] 108 % of control | [7] 103 % of control | [8] 104 % of control

CCOC(=O)CCC(C(=O)c1cccnc1)c1ccccn1 (centres undefined)
inactive: dose: 100.0 mg/kg/injection, schedule: Q01DX001 (ip), vehicle: saline 104 % of control | dose: 200.0 mg/kg/injection, schedule: Q01DX001 (ip), vehicle: saline 101 % of control | dose: 400.0 mg/kg/injection, schedule: Q01DX001 (ip), vehicle: saline 99 % of control

N#CCCN1CCC(N)=NC1=NC#N
inactive: dose: 25.0 mg/kg/injection, schedule: Q01DX005 (ip), vehicle: Klucel (hydroxypropylcellulose) (HPC) 100 % of control | dose: 50.0 mg/kg/injection, schedule: Q01DX005 (ip), vehicle: Klucel (hydroxypropylcellulose) (HPC) 112 % of control | dose: 100.0 mg/kg/injection, schedule: Q01DX005 (ip), vehicle: Klucel (hydroxypropylcellulose) (HPC) 94 % of control | dose: 200.0 mg/kg/injection, schedule: Q01DX005 (ip), vehicle: Klucel (hydroxypropylcellulose) (HPC) 96 % of control

CCOC(=O)C(CC)C1=CCCCC1 (centres undefined)
inactive: dose: 50.0 mg/kg/injection, schedule: Q01DX009 (ip), vehicle: saline with Tween-80 109 % of control | [9] 118 % of control | [10] 109 % of control | dose: 200.0 mg/kg/injection, schedule: Q01DX009 (ip), vehicle: saline with Tween-80 118 % of control | dose: 200.0 mg/kg/injection, schedule: Q04DX003 (ip), vehicle: saline with Tween-80 100 % of control | dose: 400.0 mg/kg/injection, schedule: Q04DX003 (ip), vehicle: saline with Tween-80 113 % of control

[CH3][Sn]([CH3])([n]1cnc2ccccc21)[n]1cnc2ccccc21
inactive: dose: 3.12 mg/kg/injection, schedule: Q01DX005 (ip), vehicle: Klucel (hydroxypropylcellulose) (HPC) 111 % of control | dose: 6.25 mg/kg/injection, schedule: Q01DX005 (ip), vehicle: Klucel (hydroxypropylcellulose) (HPC) 115 % of control | dose: 12.5 mg/kg/injection, schedule: Q01DX005 (ip), vehicle: Klucel (hydroxypropylcellulose) (HPC) 118 % of control

C=C1C(=O)OC2CC3(C)OC3CC(O)/C(C)=C/C(OC(=O)C(C)C)C12 (centres undefined)
inactive: dose: 6.25 mg/kg/injection, schedule: Q01DX009 (ip), vehicle: saline 110 % of control | [11] 112 % of control | [12] 121 % of control

Nc1c(C(=O)O)ccc2c1C(=O)c1ccccc1C2=O
inactive: dose: 6.25 mg/kg/injection, schedule: Q01DX005 (ip), vehicle: saline with Tween-80 96 % of control | dose: 12.5 mg/kg/injection, schedule: Q01DX005 (ip), vehicle: saline with Tween-80 96 % of control | dose: 25.0 mg/kg/injection, schedule: Q01DX005 (ip), vehicle: saline with Tween-80 98 % of control | [6] 103 % of control

c1cnn([B-]2(n3cccn3)n3ccc[n+]3[B-](n3cccn3)(n3cccn3)n3ccc[n+]32)c1
inactive: [1] 102 % of control | [2] 102 % of control | [3] 100 % of control

c1cc2c3c(c1)nc(CCc1nc4cccc5c4n1CCC5)n3CCC2
inactive: dose: 25.0 mg/kg/injection, schedule: Q04DX003 (ip), vehicle: saline with Tween-80 109 % of control | dose: 50.0 mg/kg/injection, schedule: Q04DX003 (ip), vehicle: saline with Tween-80 86 % of control | [10] 86 % of control

Cc1cc(SSc2cc(C)nc(N)n2)nc(N)n1
inactive: dose: 100.0 mg/kg/injection, schedule: Q01DX001 (ip), vehicle: saline with Tween-80 86 % of control | dose: 200.0 mg/kg/injection, schedule: Q01DX001 (ip), vehicle: saline with Tween-80 86 % of control

Cc1cc(N=Nc2ccc(N=Nc3ccc(S(=O)(=O)O)cc3)cc2)cc(C(=O)O)c1O
inactive: [11] 114 % of control | [12] 113 % of control | dose: 50.0 mg/kg/injection, schedule: Q01DX009 (ip), vehicle: saline 91 % of control and 96 % of control | dose: 200.0 mg/kg/injection, schedule: Q01DX009 (ip), vehicle: saline 93 % of control

Nc1ccc2[nH]c(=S)[nH]c2c1
inactive: dose: 10.0 mg/kg/injection, schedule: Q01DX009 (ip), vehicle: saline with Tween-80 100 % of control | dose: 20.0 mg/kg/injection, schedule: Q01DX009 (ip), vehicle: saline with Tween-80 104 % of control | dose: 40.0 mg/kg/injection, schedule: Q01DX009 (ip), vehicle: saline with Tween-80 100 % of control | [9] 95 % of control | dose: 400.0 mg/kg/injection, schedule: Q01DX009 (ip), vehicle: saline with Tween-80 95 % of control

CN1CCC(O)CC1=O (centres undefined)
inactive: [6] 104 % of control | [7] 98 % of control | [8] 101 % of control

O=C1CCC(N2C(=O)C3CCCCC3C2=O)C(=O)O1 (centres undefined)
inactive: dose: 50.0 mg/kg/injection, schedule: Q01DX009 (ip), vehicle: Klucel (hydroxypropylcellulose) (HPC) 94 % of control | dose: 100.0 mg/kg/injection, schedule: Q01DX009 (ip), vehicle: Klucel (hydroxypropylcellulose) (HPC) 108 % of control | dose: 200.0 mg/kg/injection, schedule: Q01DX009 (ip), vehicle: Klucel (hydroxypropylcellulose) (HPC) 99 % of control

N#CC1(OC2OC(CO)C(O)C(O)C2O)C=CCC1 (centres undefined)
inactive: dose: 25.0 mg/kg/injection, schedule: Q01DX005 (ip), vehicle: saline 101 % of control | dose: 50.0 mg/kg/injection, schedule: Q01DX005 (ip), vehicle: saline 103 % of control | dose: 100.0 mg/kg/injection, schedule: Q01DX005 (ip), vehicle: saline 98 % of control | dose: 200.0 mg/kg/injection, schedule: Q01DX005 (ip), vehicle: saline 96 % of control

O=CC(=O)c1ccc(O)cc1
inactive: dose: 18.8 mg/kg/injection, schedule: Q04DX003 (ip), vehicle: saline 101 % of control | dose: 37.5 mg/kg/injection, schedule: Q04DX003 (ip), vehicle: saline 100 % of control | dose: 75.0 mg/kg/injection, schedule: Q04DX003 (ip), vehicle: saline 103 % of control | dose: 150.0 mg/kg/injection, schedule: Q04DX003 (ip), vehicle: saline 109 % of control

CCC(CC)C1NC(C(CC)CC)N2C(C(CC)CC)N12 (centres undefined)
inactive: dose: 50.0 mg/kg/injection, schedule: Q01DX001 (ip), vehicle: Klucel (hydroxypropylcellulose) (HPC) 103 % of control | [4] 104 % of control | [5] 101 % of control

NNS(=O)(=O)CCC(NC(=O)OCc1ccccc1)C(=O)OCc1ccccc1 (centres undefined)
inactive: [13] 98 % of control | [14] 103 % of control | dose: 50.0 mg/kg/injection, schedule: Q01DX009 (ip), vehicle: other 94 % of control | [15] 94 % of control | [16] 98 % of control

[N-]=[N+]=CC(=O)OCC1NC(=O)C(COC(=O)C=[N+]=[N-])NC1=O (centres undefined)
inactive: [13] 104 % of control and 102 % of control | [14] 113 % of control and 101 % of control | [15] 111 % of control and 120 % of control | [16] 95 % of control and 111 % of control | dose: 3.1 micrograms/kg/injection, schedule: Q01DX009 (ip), vehicle: water 109 % of control and 104 % of control | dose: 6.1 micrograms/kg/injection, schedule: Q01DX009 (ip), vehicle: water 98 % of control and 101 % of control | dose: 12.2 micrograms/kg/injection, schedule: Q01DX009 (ip), vehicle: water 114 % of control and 100 % of control | dose: 24.4 micrograms/kg/injection, schedule: Q01DX009 (ip), vehicle: water 104 % of control and 107 % of control | dose: 48.8 micrograms/kg/injection, schedule: Q01DX009 (ip), vehicle: water 100 % of control | dose: 97.5 micrograms/kg/injection, schedule: Q01DX009 (ip), vehicle: water 92 % of control and 97 % of control | dose: 195.0 micrograms/kg/injection, schedule: Q01DX009 (ip), vehicle: water 100 % of control and 96 % of control | dose: 390.0 micrograms/kg/injection, schedule: Q01DX009 (ip), vehicle: water 109 % of control and 105 % of control | dose: 780.0 micrograms/kg/injection, schedule: Q01DX009 (ip), vehicle: water 100 % of control
